# According to patent US8557222B2, “Radiopharmaceutical imaging of neurodegenerative diseases” (priority 2008, dated 2013):
# Key:
# β-amyloid plaque = assay: PET imaging of β-amyloid plaque with ^18F-AV-45 (fused/simulated dual radiopharmaceutical images); assay type: in vivo, human; conditions: imaged between 70 and 80 minutes, simulated fused image
# Method: (§1) Data was generated from the radiopharmaceutical imaging of β-amyloid plaque and nigrostriatal dopaminergic degeneration utilizing dual radiopharmaceuticals. The radiopharmaceuticals utilized included ^18F-AV-45, which targets β-amyloid plaque and ^18F-AV-133, which targets nigrostriatal neurons. The radiopharmaceuticals were administered via intravenous injection to subjects who were clinically diagnosed with Parkinson's Disease (PD) or Alzheimer's Disease (AD).
# (§2) Data was analyzed for PD patients (PD_AV133) and Healthy Controls (HC_AV133) as well as for AD patients (AD_AV45) and Healthy Controls (HC_AV45). Data and images derived from subjects in each category were analyzed individually. Data and images from an average of 4 subjects in each respective category was also analyzed and used as the basis of this protocol. The optimal imaging protocol was judged based on the following criteria: clarity of images/data in the cortical, grey, and white volumes of interest (VOIs) of the brain (relating to diagnosis of AD) and the striatal VOIs of the brain (relating to diagnosis of PD/DLB); ease and level of certainty of the individual diagnoses of the presence or absence of AD, PD, and DLB; minimum level of radiation injected into a patient; and minimum protocol completion time.
# (§3) FIGS. 1, 4, 7 and 10 were created by the fusion of two separate image data sets, one from a PET scan of an ^18F amyloid plaque-binding radiopharmaceutical (^18F-AV-45) and one from a PET scan of an ^18F VMAT2 targeted radiopharmaceutical (^18F-AV-133). FIG. 1 is a simulated image of the brain of a healthy individual with no observable amyloid plaques and normal dopaminergic neurons (imaged between 70 and 80 minutes). […] This image pattern is consistent with a pure AD diagnosis, with no evidence of loss of striatal neurons (which would be observed if PD or DLB were also present). […] This image pattern is consistent with a pure PD diagnosis, without evidence of AD amyloid plaque pathology.
# (§4) The Statistical Parametric Mapping (SPM2) application in MATLAB® (Version 7.3 R2006b, MathWorks, Inc.) was used to align the raw images and create a mean image from the image set. The mean image was normalized to a SPECT template, although in other experiments, other templates were used. Using the image viewer application in MRICro, the normalized mean image was compared with the template image to confirm that the two images align. […] Standardized uptake values (SUVs) were calculated from the counts extracted from the images. […]
# (§5) The cortical regions are where amyloid plaques are found in the brain using the ^18F-AV-45 radiopharmaceutical, while the striatal regions contain dopaminergic neurons detected with the ^18F-AV-133 radiopharmaceutical. […]
# [1] = Brain washout of first radiopharmaceutical in the dual imaging protocol; assay type: in vivo, human; conditions: 10 mCi intravenous; at second acquisition, 30 minutes after ^18F-AV-133 given about 50 minutes after start of protocol
# Excerpt: The cortical regions are where amyloid plaques are found in the brain using the ^18F-AV-45 radiopharmaceutical, while the striatal regions contain dopaminergic neurons detected with the ^18F-AV-133 radiopharmaceutical. […] FIGS. 5 and 6 show simulated activity curves for cortical and striatal regions of the brain, respectively, for an individual with AD. FIGS. 8 and 9 show simulated activity curves for cortical and striatal regions of the brain, respectively, of an individual with PD while FIGS. 11 and 12 show simulated activity curves for cortical and striatal regions of the brain, respectively, of an individual with AD and PD. […] Whenever the two radiopharmaceuticals were considered as being simultaneously present in the brain, the SUVs from both radiopharmaceuticals for each region were summed together, and the summed SUVs were plotted. This allowed for the simulation/prediction of the interaction and possible interference of activity of one radiopharmaceutical with the other when both are present in the brain during the imaging of the subject.
# Through analyzing and experimenting with the plots and images described above, a protocol for the simultaneous imaging of AD plaques and dopaminergic neuronal degeneration was created. […] The total protocol time was about 80 to 90 minutes. […]
# VMAT2 = biological target: T1, VMAT2 (Homo sapiens, UniProt Q05940); assay: PET imaging of nigrostriatal dopaminergic neurons with ^18F-AV-133 (fused/simulated dual radiopharmaceutical images); assay type: in vivo; conditions: imaged between 70 and 80 minutes, simulated fused image
# T1 construct: from tissue; host or cells: brain (striatal regions, dopaminergic neurons) of living human subjects, in vivo PET
# T1 sequence (Q05940 whole entry, the tested form may be a part): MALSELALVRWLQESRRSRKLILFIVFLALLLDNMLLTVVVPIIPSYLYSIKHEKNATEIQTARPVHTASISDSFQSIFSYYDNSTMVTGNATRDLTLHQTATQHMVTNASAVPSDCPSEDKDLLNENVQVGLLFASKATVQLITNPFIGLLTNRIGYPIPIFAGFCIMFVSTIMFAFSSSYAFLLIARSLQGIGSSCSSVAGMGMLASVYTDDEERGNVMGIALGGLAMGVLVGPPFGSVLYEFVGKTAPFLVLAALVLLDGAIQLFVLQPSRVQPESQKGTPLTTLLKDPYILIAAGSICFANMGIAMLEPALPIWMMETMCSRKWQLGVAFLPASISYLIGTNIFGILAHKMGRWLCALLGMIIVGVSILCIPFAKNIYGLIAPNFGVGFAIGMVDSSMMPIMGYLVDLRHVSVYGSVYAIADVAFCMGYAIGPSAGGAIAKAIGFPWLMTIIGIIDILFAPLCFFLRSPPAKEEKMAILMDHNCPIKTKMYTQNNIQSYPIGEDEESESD
# Method: as §1, §2, §3, §4, §5
# [2] = FIG. 4, individual with clinical signs of AD
# [3] = FIG. 7, individual exhibiting symptoms of PD
# [4] = FIG. 10, individual with both AD and PD
Structure (SMILES),"cortical brain signal from ^18F-AV-45 (β-amyloid plaque; FIG. 1, healthy individual)",^18F-AV-45 radiopharmaceutical signal (amyloid plaque deposits) (β-amyloid plaque; [2]),amyloid signal in the cortical brain regions from ^18F-AV-45 (β-amyloid plaque; [3]),^18F-AV-45 retention (amyloid plaques) (β-amyloid plaque; [4]),washout and radioactive decay of ^18F-AV-45 from brain [1],"signal in the nigrostriatal region from ^18F-AV-133 (VMAT2; FIG. 1, healthy individual)",uptake of ^18F-AV-133 in the nigrostriatal region of the brain (VMAT2; [2]),intensity of ^18F-AV-133 in the striatal regions (VMAT2; [3]),uptake of AV-133 in the striatal regions (VMAT2; [4])
"CNc1ccc(/C=C/c2ccc(OCCOCCOCC[18F])nc2)cc1 [^18F-AV-45, (E)-4-(2-(6-(2-(2-(2-[^18F]fluoroethoxy)ethoxy)ethoxy)pyridin-3-yl)vinyl)-N-methylbenzenamine]",no appreciable cortical brain signal,Amyloid plaque deposits are visible in the frontal region of the brain,does not show evidence of amyloid signal in the cortical brain regions,retention in cortical brain,essentially complete,,,,
"COc1cc2c(cc1OCCC[18F])CCN1C[C@@H](CC(C)C)[C@H](O)C[C@H]21 [^18F-AV-133, (2R,3R,11bR)-9-(3-[18F]fluoropropoxy)-3-isobutyl-10-methoxy-2,3,4,6,7,11b-hexahydro-1H pyrido[2,1a]isoquinolin-2-ol]",,,,,,strong signal in the nigrostriatal region,normal uptake,lack of intensity in the striatal regions,diminished uptake
